According to publication PMC5770468, “Cardiac glycoside/aglycones inhibit HIV-1 gene expression by a mechanism requiring MEK1/2-ERK1/2 signaling” (Scientific Reports, 2018):

Tests used:
HIV-1 Gag-GFP expression = experiment: Recovery of HIV-1 Gag-GFP expression by pathway inhibitors in the presence of CSs, HeLa rtTA-HIV(Gag-GFP) cells; type: cell-based; details: 12 μM U0126; 5.5 μM Selumetinib; 10 μM LY294002; 5 µM KB-R7943; CSs at ~IC80
Protocol: (§1) Figure 5 Effect of modulating NKA expression, [Ca^2+]i, and PI3K-AKT on HIV-1 gene expression. Depletion of the NKA perturbs HIV-1 RNA processing (n ≥ 3, mean, s.e.m.). HeLa rtTA-HIV(Gag-GFP) cells were transduced with two shRNAs (E6/E10) to knockdown expression of the NKA α1 subunit and their effect on HIV-1 gene expression analyzed. After positive selection of cells with puromycin for 24–48 h, HIV-1 expression was Dox induced for 20 h, and cells harvested for analyses. Total mRNA (and protein) was isolated from cells, reverse transcribed, and analyzed by qRT-PCR and data normalized to β-actin (a,c). Results are shown relative to Stuffer (+). (a) Expression levels of NKA α1 mRNAs assayed by qRT-PCR. (b) HIV-1 Gag expression assayed by p24^CA ELISA of cell lysates (40 μg). (c) Accumulation of HIV-1 US (black), SS (white), and MS (gray) mRNAs quantified by qRT-PCR. (d–g) CSs suppress HIV-1 gene expression independent of intracellular Ca^2+ flux/signaling and PI3K-AKT activation. HeLa rtTA-HIV(Gag-GFP) cells were pre-treated with either a chelator of [Ca^2+]i (5 µM BAPTA-AM, [Ca2+]ii), inhibitors of NCX Ca^2+-entry (5 µM KB-R7943, NCXi) or PI3K (10 μM LY294002, PI3Ki), or untreated (DMSO, no pathway inhibitor) for ~2 h prior to treatment with ~IC80s of CSs or DMSO for 4 h, and Dox induced for ~20 h. The pathway used by a CS to inhibit HIV-1 expression was determined by monitoring for recovery of Gag-GFP expression by measuring GFP fluorescence in cell lysates (and initially by plate scans of live/fixed cells, Supplementary Fig. S7a and S8c). (d) Levels of [Ca^2+]i measured by Fura Red AM™ (n ≥ 4, mean, s.e.m.). (e–f) Quantification of Gag-GFP expression by reducing SDS-PAGE in lysates (35 μg) of cells which were pre-treated with/without KB-R7943 (n ≥ 3–4 mean, s.e.m.). […] (g) Graph quantitating Gag expression by p24^CA ELISA in lysates of cells (35 μg) that were pre-treated with/without LY294002 (n ≥ 3, mean, s.e.m.). Statistical comparisons in (a–g) were performed as illustrated (black/gray dashed lines) or described in Methods.
Figure 6 CSs control HIV-1 gene expression through intracellular signaling. HeLa rtTA-HIV(Gag-GFP) cells were pre-treated with/without pathway inhibitor overnight (~15 h) and treated with ~IC80s of CSs. […] Graphs quantifying the activation level (phospho/total protein) of each MAP/MAPK by western blot. […] The signaling pathway(s) used by a CS to inhibit HIV-1 expression was determined by detecting Gag-GFP fluorescence in cell lysates (~35 μg) by reducing SDS-PAGE after pre-treatment of cells with a MEK1/2 (12 μM U0126, white), p38α/β/β2 (15 μM SB203580/p38i, gray), or JNK1/2/3 (1.25 μM SP600125/JNKi, hatched) inhibitor (n ≥ 5–7, 4–8, and 3–7, resp., mean, s.e.m.). […]

[Ca^2+]i = Intracellular Ca2+ by Fura Red AM in HeLa rtTA-HIV(Gag-GFP) cells; type: cell-based, human; details: 5 µM pre-treatment ~2 h
Protocol: as §1, with “(a) Expression levels of NKA α1 mRNAs assayed by qRT-PCR. (b) HIV-1 Gag expression assayed by p24^CA ELISA of cell lysates (40 μg).” left out, “(d–g) CSs suppress HIV-1 gene expression independent of intracellular Ca^2+ flux/signaling and PI3K-AKT activation. HeLa rtTA-HIV(Gag-GFP) cells were pre-treated with either a chelator of [Ca^2+]i (5 µM BAPTA-AM, [Ca2+]ii), inhibitors of NCX Ca^2+-entry (5 µM KB-R7943, NCXi) or PI3K (10 μM LY294002, PI3Ki), or untreated (DMSO, no pathway inhibitor) for ~2 h prior to treatment with ~IC80s of CSs or DMSO for 4 h, and Dox induced for ~20 h.” left out, “Statistical comparisons in (a–g) were performed as illustrated (black/gray dashed lines) or described in Methods.” left out

N=C(N)SCCc1ccc(OCc2ccc([N+](=O)[O-])cc2)cc1 [KB-R7943]
reversal of CS inhibition of HIV-1 Gag-GFP expression by pathway inhibitor pre-treatment (HIV-1 Gag-GFP expression): did not reverse | effect on CS-triggered rise in [Ca^2+]i ([Ca^2+]i): blocked
